# Like-named read-outs stand apart in the source and are kept apart here.
# Legend:
# PDAC organoids = conditions: Shinkawa T et al, 2022; cited from earlier work
# CFPAC1 cells = conditions: Raghavan et al., 2021; cited from earlier work
# [1] = system: docetaxel resistant DU145 cells; experiment: WST-1 cell viability, docetaxel-resistant DU145 cells; format: cell-based; conditions: for IC50: docetaxel resistant DU145 cells, 72-hour drug exposure, WST-1, read-out: mean half maximal inhibitory concentration (IC50)
# Procedure: A DU145 prostate cancer cell line was obtained from American Type Culture […] (ATCC) and cultured in RPMI 1640 medium (Thermo Fisher Scientific), supplemented with 10% fetal bovine serum (FBS) (Gibco, Thermo Fisher Scientific) and maintained at 37° C. with 5% CO2. A docetaxel-resistant cell line model for DU145 was established by chronically exposing the parent cell line to stepwise increasing concentrations of docetaxel as previously described(41,42). Both cell lines were periodically monitored for mycoplasma using the Universal Mycoplasma Detection Kit following the manufacturer's protocol (A TCC). In vitro drug screening in both the docetaxei-resistant and control DU145 nodels was performed using either vemurafenib (PLX4032; CAS No. 918504-65-1) or docetaxel (RP-56976; CAS No. 114977-28-5) obtained from MedChem Express (Monmriouth Junction NJ, USA) dissolved in dimethylsulfoxide (DMSO) to obtain stock concentrations of 100 mM for vemurafenib or 5 mM for docetaxel.
# (§1) Docetaxel-resistant and control DU145 cells were trypsinized, harvested, counterstained with Hoechst 33342 Fluorescent Stain (Thermo Scientific, Pierce Biotechnology, Rockford, IL) and resuspended in full growth media to 5×10^4 cells per mL prior to plating in 96-well microplates (Thermo Scientific) using a seeding density of 5×10^3 cells per well and allowed to attach for 24 hours. Following incubation, cells were treated with different concentrations of either docetaxel ranging from 0.92 nM to 6 uM, or vemurafenib ranging from 2.5 uM to 50 uM. Cell viability for each well was measured following a 72-hour drug exposure using the WST-1 assay [(Roche Applied. Science, Penzberg, Upper Bavaria, Germany) following the manufacturer's protocol. Absorbance at the 450 nm wavelength was assessed using the Synergy HTX Multi-Mode Plate Reader (BioTek, Winooski, VT)]. Absorbance values for each well were used to calculate percent viability relative to the no drug condition. […]
# mesoderm-like cells = conditions: RMS oPDX, Patel et al., 2022; cited from earlier work
# [2] = system: docetaxel sensitive DU145 cells; experiment: WST-1 cell viability, docetaxel-sensitive (control) DU145 cells; format: cell-based; conditions: Homo sapiens, DU-145, 72-hour drug exposure
# Procedure: A DU145 prostate cancer cell line was obtained from American Type Culture […] (ATCC) and cultured in RPMI 1640 medium (Thermo Fisher Scientific), supplemented with 10% fetal bovine serum (FBS) (Gibco, Thermo Fisher Scientific) and maintained at 37° C. with 5% CO2. A docetaxel-resistant cell line model for DU145 was established by chronically exposing the parent cell line to stepwise increasing concentrations of docetaxel as previously described(41,42). Both cell lines were periodically monitored for mycoplasma using the Universal Mycoplasma Detection Kit following the manufacturer's protocol (A TCC). […]
# as §1, with “Following incubation, cells were treated with different concentrations of either docetaxel ranging from 0.92 nM to 6 uM, or vemurafenib ranging from 2.5 uM to 50 uM.” left out, “VT)].” for “VT)]. Absorbance values for each well were used to calculate percent viability relative to the no drug condition.”
# [3] = patients, cited from earlier work
compound,measurement,setting,value
Nc1ccn([C@@H]2O[C@H](CO)[C@@H](O)C2(F)F)c(=O)n1 [Gemcitabine],response of basal-like vs classical-like PDAC organoids,PDAC organoids,higher resistance
CC(=O)O[C@H]1C(=O)[C@@]2(C)[C@H]([C@H](OC(=O)c3ccccc3)[C@]3(O)C[C@H](OC(=O)[C@H](O)[C@@H](NC(=O)c4ccccc4)c4ccccc4)C(C)=C1C3(C)C)[C@]1(OC(C)=O)CO[C@@H]1C[C@@H]2O [Paclitaxel],response of CFPAC1 cells grown in complete classical organoid media,CFPAC1 cells,responsive
CCc1c2c(nc3ccc(O)cc13)-c1cc3c(c(=O)n1C2)COC(=O)[C@]3(O)CC [SN-38],response of CFPAC1 cells grown in complete classical organoid media,CFPAC1 cells,responsive
CC(=O)O[C@@]12CO[C@@H]1C[C@H](O)[C@@]1(C)C(=O)[C@H](O)C3=C(C)[C@@H](OC(=O)[C@H](O)[C@@H](NC(=O)OC(C)(C)C)c4ccccc4)C[C@@](O)([C@@H](OC(=O)c4ccccc4)[C@H]21)C3(C)C [docetaxel],"percent viability, resistant vs sensitive DU145 cells","[1]; docetaxel exposure, FIG. 9, two-way ANOVA",higher resistance
CCc1c2c(nc3ccc(OC(=O)N4CCC(N5CCCCC5)CC4)cc13)-c1cc3c(c(=O)n1C2)COC(=O)[C@]3(O)CC [irinotecan],response of mesoderm-like cells compared to myoblast cells,mesoderm-like cells,highly resistant
CCCS(=O)(=O)Nc1ccc(F)c(C(=O)c2c[nH]c3ncc(-c4ccc(Cl)cc4)cc23)c1F [vemurafenib],IC50,"[1]; Homo sapiens, DU-145, 72 h",12.8 µM
same,IC50,[1],12.9 µM
same,IC50,[2],27.9 µM
same,average maximum serum concentration (Cmax),"[3]; previous trial (Zhang W et al., 2017)",61.4 µg/mL
same,average maximum serum concentration (Cmax),"[3]; previous trial, equivalent of 61.4 μg/mL",125.3 μM/L
same,tolerability at Cmax,[3]; previous trial,well tolerated

# Reference: US20250066840A1, “Single-cell RNA sequencing analysis pipeline for predicting cell sensitivities to various drugs” (Regents of the University of Minnesota, priority 2023, published 2025)
